{"source": "patent US10563272B2", "about": "“Compositions comprising Metarhizium fungi and use thereof as a pesticide” (Cotton Research and Development Corporation, priority 2015, dated 2020)", "key": {"predatory bugs [1]": {"system": "predatory bugs", "test": "Rate trial on conventional cotton, Norwood 2012 (Example 10): predatory bugs", "assay_type": "in vivo, Hemiptera (Nabidae, Lygaeidae, Pentatomidae)", "details": "P>0.05", "description": "This trial was conducted on commercial conventional cotton crops on a farm at Norwood (29° 28'S, 149° 50′E) near Moree, NSW, from 28 Feb. to 21 Mar. 2012. The cotton used for the trial was at the early squaring stage, when it was attractive to green mirids (Khan et al. 2004).\n(§1) The efficacy of the following treatments against green mirids and predatory insects were evaluated: • 1. 250 mL/ha DAT 511 spore in oil (1×10^7 spores/ml); • 2. 500 mL/ha DAT 511 spore in oil (1×10^7 spores/ml); • 3. 1 L/ha DAT 511 spore in oil (1×10^7 spores/ml); • 4. 62.5 mL/ha of Fipronil; and • 5. Unsprayed (negative control).\n(§2) The treatment plots were arranged in a randomized complete block design with six replicates per treatment. Each replicated plot measured 40 m wide (40 rows) and 90 m long.\nFoliar application of each treatment was made on 28 Feb. (for both green mirids and beneficial insects) and 13 Mar. […]\nPre-treatment counts of adult and nymph green mirids, predatory beetles, predatory bugs, predatory lacewings and spiders were made by visual inspection of whole cotton plants. Both adults and nymphs of beneficial insects were counted. Plants were assessed in randomly selected one-metre lengths of row of each treatment replicate (i.e. 6 m per treatment). […] Data are expressed as numbers of green mirid adults and nymphs counted per metre per treatment."}, "predatory bugs [2]": {"system": "predatory bugs", "test": "Bollgard II cotton, Auscott-Togo 2012-13, Field 63 (Experiment 2): predatory bugs", "assay_type": "in vivo, Hemiptera (Nabidae, Lygaeidae, Pentatomidae)", "details": "62.5 mL/ha", "description": "Two separate trials (Experiment 1 in Field 77; Experiment 2 in Field 63) were conducted in Bollgard II cotton crops on a commercial cotton farm at Auscott-Togo near Narrabri, New South Wales from 11 Feb. to 5 Mar. 2013 (Field 77) and 19 Feb. to 6 Mar. 2013 (Field 63). The cotton used for each of the trials was at the late squaring to pod setting and maturation stages which was fairly attractive to green mirids.\nas §1, with “In both trials, the” for “The”, “was” for “were”, “fipronil;” for “Fipronil;”\nas §2\nFoliar application of each treatment was made on 28 Feb. (for both green mirids and beneficial insects) and 13 Mar. 2012 (for beneficial insects alone) using a ground spray rig fitted with flat fan nozzles to achieve a droplet size of 200 μm. The treatment was applied during the mornings when temperatures were between 20° C. and 28° C. The timing of treatment was based on the IPM Guidelines and recommendations by CottonLogic to use an economic threshold of 0.5 green mirids per metre (Deutscher and Wilson 1999; Khan et al. 2004).\nPre-treatment counts of green mirid adults and nymphs, predatory beetles, predatory bugs, predatory lacewings and spiders were made by visual inspection of whole cotton plants. Both adults and nymphs of beneficial insects were counted. Plants were assessed in randomly selected one-metre lengths of row of each replicate (i.e. 6 m per treatment). Post-treatment counts were made 3, 7, 14 and 21 days after treatment. Data are expressed as numbers of green mirid adults and nymphs counted per metre for each treatment."}, "predatory bugs [3]": {"system": "predatory bugs", "test": "Foliar spray trial on Bollgard II cotton, Norwood 2010-11 (Example 7): predatory bugs", "assay_type": "in vivo, Hemiptera (Nabidae, Lygaeidae, Pentatomidae)", "details": "fipronil 62.5 mL/ha; for number of predatory bugs per meter: 1st spray, BC 667/DAT 511 0.50 L/ha; for number of predatory bugs per metre: 2nd spray, BC 667/DAT 511 0.5 L/ha", "description": "(§3) The trial was conducted on commercial Bollgard II® cotton crops at Norwood near Moree, NSW from 5 Dec. 2010 to 19 Feb. 2011. The cotton was at the early squaring stage, when it was attractive to green mirids (Khan et al. 2004).\n(§4) The study evaluated the efficacy of the following treatments against green mirids, green vegetable bugs and predatory insects: • 1. 500 mL/ha BC 667 spore in oil (1×10^7 spores/ml); • 2. 500 mL/ha DAT 511 spore in oil (1×10^7 spores/ml); • 3. 62.5 mL/ha Fipronil (conventional insecticide); and • 4. Unsprayed (control).\n(§5) The treatment plots were arranged in a randomized complete block design with four replicates per treatment. Each replicated plot measured 0.5 ha. Foliar application of each treatment was made on 18 Jan. 2011 using a ground spray rig fitted with flat fan nozzles to achieve a droplet size of 80 250 μm. The treatment was applied in the mornings when temperature was between 20° C. and 28° C. The timing of treatment was based on an economic threshold of 0.5 green mirids per metre, the IPM guideline and recommendation by CottonLogic.\n(§6) Pre-treatment counts of green mirid adults and nymphs, predatory beetles, predatory bugs, predatory lacewings and spiders were made by visual inspection of whole cotton plants. Both adults and nymphs of the beneficial insects were counted. Plants were assessed in randomly selected one-metre lengths of row of each treatment replicate (i.e. four metres per treatment). In all, two spray applications of each treatment were made. The first spray was made on 18 Jan. 2011. Post-treatment counts of the first spray application were taken 3, 7 and 14 days after treatment (DAT) (first spray). A second spray application was done on 1 Feb. 2011 when green mirid adults plus nymphs reached the threshold of 0.5 per metre. Post-treatment counts of the second spray application were taken 3, 7, 14, 21 and 28 DAT. Data are expressed as numbers of individuals of that species counted per metre for each treatment."}, "lacewings": {"system": "lacewings", "test": "Foliar spray trial on Bollgard II cotton, Norwood 2010-11 (Example 7): lacewings", "assay_type": "in vivo, Chrysopa spp., Micromus tasmaniae", "details": "fipronil 62.5 mL/ha; for number of lacewings per meter: 1st spray, BC 667/DAT 511 0.50 L/ha; for number of lacewings per metre: 2nd spray, BC 667/DAT 511 0.5 L/ha", "description": "as §3, §4, §5, §6"}}, "data": [{"smiles": "N#Cc1nn(-c2c(Cl)cc(C(F)(F)F)cc2Cl)c(N)c1[S+]([O-])C(F)(F)F", "note": "(centres unmarked) [fipronil]", "values": [{"measurement": "number of predatory bugs versus unsprayed (control) plots", "setting": "predatory bugs [1]", "result": "No significant difference"}, {"measurement": "No. predatory bugs per meter", "setting": "predatory bugs [2]; 3 DAT", "result": "0.00 ± 0.00", "unit": "a per meter"}, {"measurement": "No. predatory bugs per meter", "setting": "predatory bugs [2]; 7 DAT", "result": "0.33 ± 0.33", "unit": "a per meter"}, {"measurement": "No. predatory bugs per meter", "setting": "predatory bugs [2]; 14 DAT", "result": "0.00 ± 0.00", "unit": "a per meter"}, {"measurement": "No. predatory bugs per meter", "setting": "predatory bugs [2]; 21 DAT", "result": "0.00 ± 0.00", "unit": "a per meter"}, {"measurement": "No. predatory bugs per meter", "setting": "predatory bugs [2]; pre-spray counts", "result": "0.00 ± 0.00", "unit": "a per meter"}, {"measurement": "number of predatory bugs per meter", "setting": "predatory bugs [3]; 3 DAT", "result": "0.33 ± 0.33", "unit": "a per meter"}, {"measurement": "number of predatory bugs per meter", "setting": "predatory bugs [3]; 7 DAT", "result": "0.67 ± 0.33", "unit": "a per meter"}, {"measurement": "number of predatory bugs per meter", "setting": "predatory bugs [3]; 14 DAT", "result": "1.33 ± 0.33", "unit": "a per meter"}, {"measurement": "number of predatory bugs per meter", "setting": "predatory bugs [3]; pre-spray counts 18 Jan. 2011", "result": "0.67 ± 0.33", "unit": "a per meter"}, {"measurement": "number of predatory bugs per metre", "setting": "predatory bugs [3]; 3 DAT", "result": "0.33 ± 0.33", "unit": "a per metre"}, {"measurement": "number of predatory bugs per metre", "setting": "predatory bugs [3]; 7 DAT", "result": "0.33 ± 0.33", "unit": "a per metre"}, {"measurement": "number of predatory bugs per metre", "setting": "predatory bugs [3]; 14 DAT", "result": "0.67 ± 0.33", "unit": "a per metre"}, {"measurement": "number of predatory bugs per metre", "setting": "predatory bugs [3]; 21 DAT", "result": "1.00 ± 0.58", "unit": "a per metre"}, {"measurement": "number of predatory bugs per metre", "setting": "predatory bugs [3]; 28 DAT", "result": "0.67 ± 0.33", "unit": "a per metre"}, {"measurement": "number of predatory bugs per metre", "setting": "predatory bugs [3]; pre-spray counts 1 Feb. 2011", "result": "1.33 ± 0.33", "unit": "a per metre"}, {"measurement": "number of lacewings per meter", "setting": "lacewings; 3 DAT", "result": "0.00 ± 0.00", "unit": "a per meter"}, {"measurement": "number of lacewings per meter", "setting": "lacewings; 7 DAT", "result": "0.00 ± 0.00", "unit": "a per meter"}, {"measurement": "number of lacewings per meter", "setting": "lacewings; 14 DAT", "result": "0.33 ± 0.33", "unit": "a per meter"}, {"measurement": "number of lacewings per meter", "setting": "lacewings; pre-spray counts 18 Jan. 2011", "result": "0.67 ± 0.33", "unit": "a per meter"}, {"measurement": "number of lacewings per metre", "setting": "lacewings; 3 DAT", "result": "0.33 ± 0.33", "unit": "a per metre"}, {"measurement": "number of lacewings per metre", "setting": "lacewings; 7 DAT", "result": "0.67 ± 0.33", "unit": "a per metre"}, {"measurement": "number of lacewings per metre", "setting": "lacewings; 14 DAT", "result": "0.67 ± 0.33", "unit": "a per metre"}, {"measurement": "number of lacewings per metre", "setting": "lacewings; 21 DAT", "result": "1.67 ± 0.33", "unit": "a per metre"}, {"measurement": "number of lacewings per metre", "setting": "lacewings; 28 DAT", "result": "1.33 ± 0.33", "unit": "a per metre"}, {"measurement": "number of lacewings per metre", "setting": "lacewings; pre-spray counts 1 Feb. 2011", "result": "0.33 ± 0.33", "unit": "a per metre"}]}]}
